The values that follow come from PubChem BioAssay AID735 (The Scripps Research Institute Molecular Screening Center, 2007).

The structures appear in SMILES notation. Active and inactive are the calls of the source. How the calls were made is not given here. Where only a bound is given, the exact number is not on record here.

This assay has as its target Collagenase 3 (Homo sapiens) (UniProt P45452). The experiment in a line: human MMP13 inhibitors, potency, dose response, biochemical (AID 735). The following applies: recombinant MMP13 enzymatic activity assay.

For `CCOC(=O)/C(C#N)=C1/C=Nc2ccccc2N1`, the IC50 entry was “inactive”.

Take `COc1cc(-n2nc(C)c3c2OC(N)=C(C#N)C3c2ccccc2)c(Cl)c(Br)c1O` (configuration not stated): the IC50 is > 39.8 µM (inactive).
